{
  "source": "patent US6469030B2",
  "about": "“Methods for the treatment and prevention of ileus” (Adolor Corporation, priority 1999, dated 2002)",
  "key": {"[1]": {"assay": "Solubility in water", "assay_type": "physicochemical", "details": "except at low or high pH conditions", "excerpt": "Zwitterionic character may be inherent to the compound, and may impart desirable properties such as poor systemic absorption and sustained local affect on the gut following oral administration."}, "[2]": {"test_system": "patients undergoing partial colectomy or simple or radical hysterectomy surgical procedures", "assay": "Phase II clinical study versus placebo in patients after abdominal surgery (post-surgical ileus)", "assay_type": "in vivo, humans", "description": "A 78 patient Phase II clinical study was conducted which compared two doses (2 mg and 12 mg) of the compound of formula (II) versus placebo in patients undergoing partial colectomy or simple or radical hysterectomy surgical procedures. The results of this study are set forth in the following Tables 1 to 4 and are depicted graphically in FIGS. 1 to 5.\nThe time to first flatus was reduced by 15 hours; all other measures were reduced by 24 hours or more. […] In particular, none of the patients receiving the higher dose of the compound of formula (II) experienced post-surgical vomiting compared to 23% in the placebo control group (P<0.03). Twenty seven percent of the patients receiving the higher dose of compound (II) experienced clinically relevant post- surgical nausea compared to 63% of the placebo control group (P=0.003)."}, "[3]": {"target": "mu opioid receptors (Homo sapiens, UniProt P35372)", "sequence (P35372 whole entry)": "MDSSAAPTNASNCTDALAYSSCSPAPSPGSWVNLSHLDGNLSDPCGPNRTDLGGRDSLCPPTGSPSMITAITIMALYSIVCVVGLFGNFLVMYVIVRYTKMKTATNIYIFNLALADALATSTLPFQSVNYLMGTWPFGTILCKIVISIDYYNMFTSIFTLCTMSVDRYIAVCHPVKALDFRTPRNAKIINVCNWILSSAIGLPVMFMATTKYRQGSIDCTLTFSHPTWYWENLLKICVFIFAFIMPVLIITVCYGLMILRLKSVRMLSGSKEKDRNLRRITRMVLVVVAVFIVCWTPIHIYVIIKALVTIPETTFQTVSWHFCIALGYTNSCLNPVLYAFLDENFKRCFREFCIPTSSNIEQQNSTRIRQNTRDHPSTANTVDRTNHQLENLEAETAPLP", "details": "opioid receptor binding assays; cited from earlier work"}},
  "data": [
    {"molecule": "C[C@H]1CN(C[C@H](Cc2ccccc2)C(=O)NCC(=O)O)CCC1(C)c1cccc(O)c1", "note": "(single isomer, unassigned; (+)) [compound of formula (II), (+)-Z—NHCH2C(O)OH]", "values": [
      {"measurement": "solubility in water", "setting": "[1]", "value": "low solubility in water"},
      {"measurement": "overall adverse effects compared with placebo-treated group", "setting": "[2]; higher dose", "value": "fewer overall adverse effects"},
      {"measurement": "reduction of all other measures (first bowel movement, solid diet, ready for discharge, discharge)", "setting": "[2]; higher dose versus placebo", "value": "≥ 24", "unit": "h"},
      {"measurement": "reduction of time to first flatus", "setting": "[2]; higher dose versus placebo", "value": 15, "unit": "h"},
      {"measurement": "patients experiencing post-surgical vomiting", "setting": "[2]; higher dose, 23% in the placebo control group (P<0.03)", "value": "none"},
      {"measurement": "patients experiencing clinically relevant post-surgical nausea", "setting": "[2]; higher dose, 63% of the placebo control group (P=0.003)", "value": "Twenty seven"},
      {"measurement": "serious adverse side effects judged related to the compound", "setting": "[2]; patients of the trial", "value": "No patients experienced serious adverse side effects"},
      {"measurement": "effect on beneficial analgesic effects of systemic narcotics", "setting": "[2]; patients receiving systemic narcotics for post-surgical pain", "value": "did not reduce the beneficial analgesic effects"},
      {"measurement": "opioid receptor binding preference", "setting": "[3]", "value": "preferential binding to mu opioid receptors"}
    ]}
  ]
}
